By IC50 is commonly meant the point on the concentration scale where inhibition reaches its midpoint. Usually Km stands for the concentration of substrate that gives half-maximal velocity. For orientation: kcat means the maximal rate divided by the concentration of active sites.

Data set [1] in a line: Intratumoral concentrations of CPT-11, SN-38 and SN-38G after CPT-11 treatment (SPE-HPLC). How it is done: Tumors were collected 2, 8 and 24 h after CPT treatment, immediately dispersed in ice-cold acidic methanol (methanol: water: perchloric acid=20:20:1), and homogenized 60 sec on an Ultraturax tissue homogenizer at 20,000 rpm. The samples were clarified by centrifugation at 15,000 g for 5 min at 4° C. Supernatants were diluted with 0.1 M KH2PO4 and then separated by SPE-HPLC on a μBondapack column with 27% acetonitrile in 0.1 M potassium phosphate buffer pH=2.6. […] These three analytes were quantified by comparison with standard curves generated with analyte concentrations ranging from 2.0 pg to 200 ng.

The subject of another data set is EJ tumor xenografts. The experiment in a line: Anti-tumor effect of CPT-11 on EJ xenografts. In kind it is in vivo, Beige-SCID mice. The settings on record: EJ tumors, dose of 10 mg/kg, i.v. on two consecutive days. How it is done: (§1) Three to four month old Beige-SCID female mice were used in this study. The mice were maintained under SPF conditions and were fed a standard laboratory diet with free access to food and water, under artificial circadian rhythm. EJ or EJ/mβG cells were injected into the mice subcutaneously in their right flank to form tumor xenografts.

In the next data set the test system is EJ/mβG tumor xenografts. The experiment in a line: Anti-tumor effect of CPT-11 on EJ/mβG xenografts. The format is in vivo, Beige-SCID mice. The settings on record: EJ/mβG tumors, dose of 10 mg/kg, i.v. on two consecutive days. The method, then: as §1
Data set [2] is described as follows: Serum concentrations of CPT-11, SN-38 and SN-38G after CPT-11 administration.
For data set [3], the system named is EJ human bladder carcinoma cells. The experiment in a line: Sensitivity of EJ cells to CPT-11, SN-38, SN-38G (3H-thymidine incorporation). The settings on record: read-out: IC50 (cytotoxicity), 24 h exposure, pH not stated. On the technique in general: Incorporation of labelled thymidine or its analogues reports DNA synthesis.
The test system of another data set is EJ/mβG cells. Briefly: Sensitivity of EJ/mβG cells to CPT-11, SN-38, SN-38G (3H-thymidine incorporation). The following applies: read-out: IC50 (cytotoxicity); EJ/mβG cells, 24 h exposure, pH not stated.
Data set [4] in a line: Relative activity of membrane-tethered human β-glucuronidase variants on 3T3 cells by flow cytometry (FL4/FL1). In kind it is cell-based. The following applies: membrane-tethered enzyme, pH 7.0, substrate ELF97 β-D-glucuronide. The method, then:
The 3T3 cell libraries mentioned above were screened by FACS analysis for cells that express human β-glucuronidase variants with elevated enzymatic activity. 10^7 3T3 cells expressing membrane-bound human β-glucuronidase variants were washed and suspended in 0.4 ml BSA/HBSS (5.4 mM KCl, 0.3 mM Na2HPO4, 0.4 mM KH2PO4, 4.2 mM NaHCO3, 1.3 mM CaCl2, 0.5 mM MgCl2, 0.6 mM MgSO4, 137 mM NaCl, 5.6 mM D-glucose, pH 7.4) containing 0.5% bovine serum albumin (BSA) and 20 μg/ml 7G8-FITC for 30 min at 4° C. Cells were then washed and incubated with 25, 50 or 100 μM ELF97 β-D-glucuronide at defined pH values in 50 mM Bis-Tris, 25 mM glucose, 85.6 mM NaCl, 5.4 mM KCl, 0.6 mM MgSO4, 1.3 mM CaCl2) at 37° C. for 10 min. The cells were washed with ice-cold 0.5% BSA/HBSS and suspended in 0.5% BSA/HBSS containing 5 μg/ml propidium iodide (Sigma). Cells were then sorted on a FACSVantage DiVa (Becton, Dickinson and Company, Franklin Lakes, N.J.) equipped with an Enterprise IIC argon laser for dual excitation at 488 and 351-364 nm. Dead cells (propidium iodide positive, high FL3 fluorescence) were gated out before 7G8-FITC immunofluorescence was detected at excitation/emission wavelengths of 488/515 nm (FL1) and ELF97 was detected at excitation/emission wavelengths of 351/530 nm (FL4). […] The sorted cells were cultured for 4-10 days for sequential rounds of cell sorting or RNA extraction. Flow cytometer data was analyzed using Flowjo (Tree star, Ashland, Oreg.).
Independent 3T3 clones (5×10^7) in library EP2 mentioned above were immunofluorescence stained with 7G8-FITC and reacted with ELF97 β-D-glucuronide at pH 7.0. Sixteen individual cell clones were isolated after three rounds of sorting and the human β-glucuronidase genes were sequenced. […] Table 1 below lists amino acid substitutions in five exemplary variants and their relative enzymatic activities.

The nature of data set [5]: Kinetic values (Km, kcat) of soluble recombinant human β-glucuronidase and variants. In kind it is biochemical. The method, then:
Recombinant His-tagged wild-type human β-glucuronidase and its variants (soluble) were produced in and purified from stable 3T3 fibroblast lines, following the method described above also the method described in Wu et al., Biotechnol Appl Biochem 40:167-172 (2004).
(§2) The pH-dependent enzyme activities of the above-mentioned recombinant human beta-glucuronidase and variants were measured in triplicate with 0.1 mM ELF97 β-D-glucuronide at 37° C. for 30 minutes at a defined pH ranging from 3-10 in a beta-glucuronidase reaction buffer (50 mM Bis-Tris, 50 mM triethanol amine, 100 mM acetic acid, 0.1% BSA). The reaction was quenched by adding an equal volume of a stop buffer (2 M Tris-HCl, 0.8 M sodium bicarbonate, pH 8). The fluorescence of ELF97 was measured in a Gemini EM microplate spectrofluorometer (Molecular Device, Sunnyvale, Calif.) at excitation/emission wavelengths of 355/555 nm. Kinetic values for human beta-glucuronidase substrate hydrolysis were determined by diluting ELF97 β-D-glucuronide (2 mM) in a pH 4.5 or pH 7.0 beta-glucuronidase reaction buffer 1:1 with defined concentrations of human beta-glucuronidase in 200 μl. Fluorescence was immediately measured under thermal control at 37° C. for 8-10 min. The measurement was repeated using the same amount of enzyme at different substrate concentrations in an optimal range. The acquired readings were converted to product concentration based on preestablished standard curves. Double reciprocal plots were used to determine Km and kcat. Kinetic assays were performed at least 3 times and mean values were calculated. The stability of recombinant human beta-glucuronidase variants was carried out by measuring their enzymatic activity at time 0 and again after incubating 5 μg purified enzymes in PBS (containing 0.5 mg/ml BSA) at 37° C. for 14 days. The enzymatic activities of the human beta-glucuronidase variants were measured in triplicate with 0.5 mM 4-methylumbelliferyl β-D-glucuronide at 37° C. for 15 minutes at pH 7.0 in β-glucuronidase reaction buffer. The reaction was terminated by adding an equal volume of a stop buffer (1 M glycine, 0.5 M sodium bicarbonate, pH 11) and the fluorescence was measured at excitation/emission wavelengths of 355/460 nm in a microplate spectrofluorometer.

Data set [6] is described as follows: pH-dependent enzyme activity of recombinant human β-glucuronidase and variants (pH 3-10). The format is biochemical. The method, then:
as §2, with “The measurement was repeated using the same amount of enzyme at different substrate concentrations in an optimal range.” left out, “Double reciprocal plots were used to determine Km and kcat.” left out, “The stability of recombinant human beta-glucuronidase variants was carried out by measuring their enzymatic activity at time 0 and again after incubating 5 μg purified enzymes in PBS (containing 0.5 mg/ml BSA) at 37° C. for 14 days.” left out, “The reaction was terminated by adding an equal volume of a stop buffer (1 M glycine, 0.5 M sodium bicarbonate, pH 11) and the fluorescence was measured at excitation/emission wavelengths of 355/460 nm in a microplate spectrofluorometer.” left out

Data set [7] has as its system EJ human bladder cancer cells. Briefly: Prodrug activation of HAMG by enzyme, 3H-thymidine incorporation. The following applies: 10 μM HAMG, pH 6.8, 24 h. In kind it is cell-based. How it is done:
(§3) The prodrug activation activity of the human beta-glucuronidase variants was determined as follows. EJ human bladder cancer cells were incubated with graded concentrations (see FIGS. 3B and 3C) of human β-glucuronidase variants in RPMI (pH 6.8) containing either 10 μM HAMG or 100 nM SN-38G for 24 hours. The cells were further incubated for 24 hours in fresh medium before incorporation of ^3H-thymidine into cellular DNA was measured following the procedure described below.
(§4) Purified recombinant human beta-glucuronidase and its variants with defined concentrations were mixed with 10 μM HAMG or 100 nM SN-38G and the mixture was added to 5000 EJ human bladder cancer cells in 200 μl complete medium at pH 6.8 for 24 h. The cells were washed and incubated in fresh medium for 24 h and then pulsed for 16 h with ^3H-thymidine (1 μCi/well). The cells were harvested and the radioactivity was measured in a TopCount Microplate Scintillation Counter (Packard, Meriden, Conn.). Results are expressed as percent inhibition of ^3H-thymidine incorporation into cellular DNA in comparison to untreated cells.

Data set [8] deals with EJ human bladder cancer cells. The experiment in a line: Prodrug activation of SN-38G by enzyme, 3H-thymidine incorporation. The format is cell-based. The settings on record: 100 nM SN-38G, pH 6.8, 24 h. The method, then: as §3, §4
The mark [9] stands for this setting: 24 h after CPT-11 10 mg/kg i.v.

Method for EJ/mβG cells: EJ human bladder carcinoma cells were cultured in RPMI medium supplemented with 10% bovine calf serum in a humidified atmosphere of 5% CO2 in air at 37° C.
Cell viability was examined by measuring ^3H-thymidine incorporation into cellular DNA after the cells were cultured for an additional 24 h in fresh medium.

For the molecule `CCc1c2c(nc3ccc(OC(=O)N4CCC(N5CCCCC5)CC4)cc13)-c1cc3c(c(=O)n1C2)COC(=O)[C@]3(O)CC` [CPT-11], the “Intratumoral concentrations in EJ versus EJ/mβG tumors” value in data set [1] (2, 8 and 24 h) is listed as “identical”. Besides, the “Concentration in EJ xenografts” value worked out at 1350 ± 200 ng drug/g tumor in data set [1] (2 h after CPT-11 10 mg/kg i.v.), 87 ± 17 ng drug/g tumor in [1] (8 h after CPT-11 10 mg/kg i.v.) and 0.58 ± 0.09 ng drug/g tumor in data set [1] (setting [9]). For the same molecule, the “Concentration in EJ/mβG xenografts” value in data set [1] (2 h after CPT-11 10 mg/kg i.v.) came out at 1500 ± 230 ng drug/g tumor; in data set [1] (8 h after CPT-11 10 mg/kg i.v.), 77 ± 178 ng drug/g tumor; in [1] (setting [9]) it was 0.63 ± 0.11 ng drug/g tumor. The “Delay of tumor growth” value with EJ tumor xenografts was “did not significantly delay”; with EJ/mβG tumor xenografts, “significantly delayed”. The “Serum levels in mice bearing EJ versus EJ/mβG tumor” value in data set [2] (2 h after CPT-11 administration) was “similar”. In data set [2] (8 h or 24 h after CPT-11 administration), the “Serum concentrations in mice bearing EJ versus EJ/mβG tumor” value is on record as “no significant differences”. In addition, the half-inhibitory concentration (IC50) (in data set [3]; in the data set on EJ/mβG cells) was approximately 2100 nM each time.

B1: Wild type: Human beta-glucuronidase (wild-type, SEQ ID NO: 11) (protein, listed as Homo sapiens)
chain: MARGSAVAWAALGPLLWGCALGLQGGMLYPQESPSRECKELDGLWSFRADFSDNRRRGFEEQWYRRPLWESGPTVDMPVPSSFNDISQDWRLRHFVGWVWYEREVILPERWTQDLRTRVVLRIGSAHSYAIVWVNGVDTLEHEGGYLPFEADISNLVQVGPLPSRLRITIAINNTLTPTTLPPGTIQYLTDTSKYPKGYFVQNTYFDFFNYAGLQRSVLLYTTPTTYIDDITVTTSVEQDSGLVNYQISVKGSNLFKLEVRLLDAENKVVANGTGTQGQLKVPGVSLWWPYLMHERPAYLYSLEVQLTAQTSLGPVSDFYTLPVGIRTVAVTKSQFLINGKPFYFHGVNKHEDADIRGKGFDWPLLVKDFNLLRWLGANAFRTSHYPYAEEVMQMCDRYGIVVIDECPGVGLALPQFFNNVSLHHHMQVMEEVVRRDKNHPAVVMWSVANEPASHLESAGYYLKMVIAHTKSLDPSRPVTFVSNSNYAADKGAPYVDVICLNSYYSWYHDYGHLELIQLQLATQFENWYKKYQKPIIQSEYGAETIAGFHQDPPLMFTEEYQKSLLEQYHLGLDQKRRKYVVGELIWNFADFMTEQSPTRVLGNKKGIFTRQRQPKSAAFLLRERYWKIANETRYPHSVAKSQCLENSPFT
On to B1, for which, in [4], the “Relative activity (FL4/FL1 normalized to wild-type human β-glucuronidase)” value was 1. For the same molecule, in data set [5] (pH 4.5, 37° C.), the Michaelis-Menten constant (Km) was found to be 0.48 ± 0.06 mM and the kcat was determined as 175 ± 17 s⁻¹. Moreover, in [5] (pH 7.0, 37° C.), the Km was 2.25 ± 0.67 mM and the catalytic constant (kcat) turned out to be 41 ± 6 s⁻¹. The “pH of maximal activity” value in data set [6] (0.1 mM ELF97 β-D-glucuronide, 37° C., 30 minutes) is recorded as 4.0. In [6] (pH 7.0), the “Activity at pH 7.0 as percent of maximal activity” value was found to be 2%. The “EC50 of enzyme for killing of EJ cells with HAMG” value in data set [7] turned out to be 24 µg/mL. Besides, in data set [8], the “EC50 of enzyme for killing of EJ cells with SN-38G” value amounted to 96 ng/mL.

The record behind these values is US8491891B2, “Human beta-glucuronidase mutants with elevated enzymatic activity under physiological conditions and method for identifying such” (Academia Sinica, priority 2008, dated 2013).
